The values that follow come from publication PMC6072469, “Small molecule piperazinyl-benzimidazole antagonists of the gonadotropin-releasing hormone (GnRH) receptor” (MedChemComm, 2017).

Structures are written as SMILES. Values after ≈ are worked out from the molar mass of the structure shown. Where two headings read alike, the source gives them in different places.

Data set [1] has as its target T1, hGnRH receptors (Homo sapiens, UniProt P30968).
T1 construct: host or cells: HEK293T (division-arrested, stably expressing)
T1 sequence (P30968 1-328): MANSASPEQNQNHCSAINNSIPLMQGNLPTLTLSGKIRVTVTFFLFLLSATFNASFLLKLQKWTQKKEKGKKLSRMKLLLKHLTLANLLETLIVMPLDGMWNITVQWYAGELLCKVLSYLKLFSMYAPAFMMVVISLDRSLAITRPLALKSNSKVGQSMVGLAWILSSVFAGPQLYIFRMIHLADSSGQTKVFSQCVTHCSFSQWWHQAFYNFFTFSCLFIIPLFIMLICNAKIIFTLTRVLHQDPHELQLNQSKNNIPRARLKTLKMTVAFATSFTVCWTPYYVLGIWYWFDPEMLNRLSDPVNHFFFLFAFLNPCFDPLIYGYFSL
As to the kind of experiment: Functional cell assay (Ca2+ FLIPR): inhibition of receptor activation by LHRH/GnRH. The data set is classed as cell-based. Particulars: for potency to inhibit GnRH receptor (in words): compared with 1 / desired range. On the procedure:
Compounds insoluble in DMSO at 10 mM were dropped from testing. […] The lead compound WAY207024 (1) was included as a reference in the cell assay. All IC50 values obtained for each test compound in the concentration dependent screening were converted into Ki values using the equation of Cheng and Prusoff.[15] […]
DMEM (Corning Hanks’ Balanced PBS +/- IBMX 1 mM IBMX in Cellgro 10- 013- Salt Solution (TBD by PBS
CV): 90%; (HBSS) titration)
_FBS (Seradigm with 20 mM
Plating cell density for Plating cell density for Forskolin concentration 384-well microplate 384-well microplate for cAMP assay (Gαi-for Ca++ assay for cAMP assay coupled) immediately immediately 5-15 μM without IBMX;
Assay preparations, pretreatment of cells and seeding on 384 well plates.
Thawing Medium was prepared by mixing commercially available stock solutions of DMEM (Corning Cellgro 10-013-CV) and Fetal Bovine Serum, FBS (Seradigm Catalog #1500-500) in a volume ratio of 9:1.
Vials containing 4 x 10^6 frozen cells were transferred from liquid nitrogen to a 37 °C water bath and gently warmed while submerged under water. Immediately after the frozen cells are thawed, the cryovial was removed from the water bath, dried and cleaned with 70% alcohol. Using a 2 mL serological pipette, the cell suspension was transferred to a 15-mL conical centrifuge tube containing 5 mL DMEM pre-warmed to r.t.. The mixture was triturated gently with the same 2 mL serological pipette without causing any air bubbles.
The 15-mL tube was spun at 200x g for 5 minutes at r.t. the supernatant was removed and cells were resuspended in 11 mL of DMEM complete to obtain a cell concentration of 360000 cells/ml. Based on previous titration of cell densitites, 9000 cells were seeded per well and the plate was incubated over night at 37 °C/CO 2.
1. Loading buffer from MD is prepared. Dissolve 1 vial of dye in 10 mL buffer from kit.
2. HBBS/Hepes (1x with Ca/Mg)/20 mM Hepes, pH 7.4 with 0.1 % BSA to be used for dilution of the agonist
3. 60 mL HBBS/20 mM Hepes to be added to test compounds
The day of the assay the seeding medium was carefully decanted from each well by tilting the plate. 25 µl loading buffer containing the Ca 2+ sensing dye was added to each well. Subsequently, 20 µL of HBBS/Hepes were added to each well containing dye. Plates were incubated at 37 °C for 45 min, after which 5 µL antagonist solution (diluted in HBBS/HEPES) were dispensed into each well using a Hamilton 384 well head followed by incubation at r.t. for 15 min. After 15 min agonist was added on the FLIPR platform and the fluorescence signal […]
First sequence: 2 s, 30 sample. (Baseline)
Second sequence: 2 s, 120 sample. (Agonist stimulation)
12.5 µL addiiton, after sample 30.
Addition speed: 20 µl/sec
Compound concentration: 5x, add 12.5 µl of each
One minute baseline stabilisation, 240 s measurement
Compound plate preparation:
Agonist stock solution: Luteinizing hormone releasing hormone, 10 mM in water […]
Dissolve 5 mg in 423 µL of water, store at -80 °C until use.
Prepare a full plate with only agonist at experimental EC50 dose as reported before on FLIPR platform:
Dilute 3,225 µL in 25 mL HBSS/Hepes buffer with 0.1 % BSA
Test compounds (antagonists)
Sample to be analysed (>95% pure by HPLC/microanalysis, fully characterised).
DMSO for cell culture (reference free, anhydrous) stored in desiccator 1: Dimethyl sulfoxide (Hybri-Max™, sterile-filtered, BioReagent, suitable for hybridoma, ≥99.7%, D2650-5X10ML, Sigma-Aldrich) […]
A - Solubility of the sample is assessed with an aliquot of the material and DMSO prior to sample preparation.
B - 10 ±1 mg of each neat, homogeneous sample are weighed into a labelled 1.5 mL flip-top Eppendorff tube.

The nature of data set [2]: Thermodynamic solubility assay (Analiza, LC-QTOFMS). The note with it: for solubility thermodynamic at 24 h: 24 hour incubation, ambient temperature. In kind it is physicochemical. Here is the method: Thermodynamic solubility assay
Analysis performed at Analiza, Cleveland Ohio.
Apparatus Agilent G6538 QTOF Mass Spectrometer equipped with dual Electrospray Ionization with Mass Hunter data software package Agilent 1290 Infinity II UHPLC system equipped with photodiode array detector, binary pump, vacuum degasser, column heater, thermostat and validated data acquisition software Standard Laboratory equipment (e.g. Pyrex volumetric flasks, graduated cylinders and bottles, sonicator, vortexer, digital timer, calibrated analytical balance, pipettes and tips
Test Compounds: were supplied as dry powder in vials
Consumables: Sodium Chloride (Cat # 21618) was purchased from Affymetrix, Cleveland, OH. HPLC grade water (Cat # EM-WX0004-1), Omnisolv Acetonitrile and (Cat #EM-AX0142-1, DimethylSulfoxide (Cat #D1258) was purchased from Spectrum Chemical, New Brunswick, NJ. DeepWell 96 well plates (Cat #AWLS-219002) were purchased from Arctic White, Bethlehem, PA. Whatman Mini UniPrep syringe-less filter device with […] PTFE filter membrane (Cat #US203NPUORG), Formic Acid (Cat# 0961-100mL) and Round bottom 96 well plates (Cat# 29444-104) were purchased from VWR, Radnor, PA. Benzthiazide (Cat # B7149) and Alprenolol (Cat# A0360000) were purchased from Sigma-Aldrich, St. Louis, MO. Hydrochloric acid,36%, (Cat # 124635000) and Phosphate Buffered Saline, 10X PBS solution, (Cat # BP399-500) were purchased from Fisher Scientific, Fair Lawn, New Jersey.
Preparation of Calibration Standards for LC-MS Analysis:
Separate test compound was weighed into 4mL vials for calibration curves. Samples were received as dry powders in vials containing approximately 5mg of material each. Upon arrival at Analiza the vials were intact.
DimethylSulfoxide (DMSO) was added to each sample such that the final concentration was 10mM and vortexed for 5-10 seconds. After vortexing, all compounds appeared to be fully dissolved. Each test compound was transferred to a polypropylene 96 well plate for robotic preparation of calibration standards.
Each test article DMSO stock solution was serially diluted using a Hamilton STARlet liquid handler with 50-50 LC-MS water 0.1% Formic Acid and LC-MS acetonitrile 0.1% Formic Acid to final concentrations as described below in Table 1 and plated in a polypropylene 96 well plate sealed with foil seal for analysis. A standard calibration curve was prepared for each compound from these dilutions.
Ambient Temperature Test compounds were received as dry powders in vials containing approximately 5mg of material each. Upon arrival at Analiza the vials were intact. Each sample was weighed into a Whatman vial and the appropriate Buffer (450uL) was added to each vial for a dose concentration of approximately 2mg/mL .
Following 24 hour incubation on a rotary shaker (200 RPM) at ambient temperature (22.6-25.0°C), the samples were filtered in a 96 well polypropylene plate. The plate was sealed with a pierceable heat seal and analyzed by […]
Quantitation: 1.) LC-QTOFMS: a. Each sample was weighed into a whatman vial and the appropriate buffer (450uL) was added to each vial for a dose concentration of approximately 2mg/mL incubated for 24 hours and filtered b. The filtrates were assayed undiluted or diluted 100X, 1000X, and/or 10000x with a 50:50 solution of mobile phase and eluted using a fast generic gradient program. c. […] The filtrates were quantified with respect to this calibration curve. […]

Data set [3] in a line: Solubility (method not given). The data set is classed as physicochemical.
Data set [4] addresses rat GnRH receptor. More on the design: method as in PMID 19271735. Particulars: concentration to inhibit GnRH binding to the receptor by 50% ref 11; read-out: IC50 (rGnRH); cited from earlier work.
Data set [5] deals with human GnRH receptor. Also noted: method as in PMID 19271735. The note with it: concentration to inhibit GnRH binding to the receptor by 50% ref 11; read-out: IC50 (hGnRH); cited from earlier work.
Setting [6] is: calculated from mean IC50 using the Cheng–Prusoff equation, read-out: Ki (hGnRH).
[7] abbreviates: inhibition of LHRH/GnRH stimulation in cells stably expressing hGnRH receptors, IC50 geometric mean of two experiments, read-out: pIC50 (hGnRH) (converted).
[8] abbreviates: pH 1.2 (simulated gastric fluid).
Where [9] appears, read: pH 7.4 (phosphate buffered saline).

The Ki is the dissociation constant of the complex between target and ligand, obtained from inhibition or displacement. What is called solubility (thermodynamic) is solubility found after equilibrating the solid with the medium. As a reminder, the solubility is how much of the substance goes into solution per volume. A low value points to little dissolved substance.

As for `CC(=O)NC1C(O)C(O)C(CO)OC1n1cc(CN2CCN(c3cccc4[nH]c(-c5ccc(C(C)(C)C)cc5)nc34)CC2)nn1` (stereo not shown) [8f], the Ki in data set [1] (setting [6]) is more than 1000 nM. The IC50 in data set [1] (setting [7]) is more than 10000 nM.

As for `CC(C)(C)c1ccc(-c2nc3c(N4CCN(Cc5cn(-c6ccc(F)cc6)nn5)CC4)cccc3[nH]2)cc1` [8i], the “potency to inhibit GnRH receptor (in words)” value in data set [1] is given as “did not give the desired inhibition”.

With `Cc1cn(C2CC(n3cc(CN4CCN(c5cccc6[nH]c(-c7ccc(C(C)(C)C)cc7)nc56)CC4)nn3)C(CO)O2)c(=O)[nH]c1=O` (stereo not shown) [8g], the Ki in data set [1] (setting [6]) was 38 nM. Further, in data set [1] (setting [7]), the IC50 is 2000 nM. In addition, the thermodynamic solubility at 24 h in data set [2] (setting [8]) is 1200 µg/mL (≈ 1880 µM); in data set [2] (setting [9]), less than 1 µg/mL.

As to `CC(C)(C)c1ccc(-c2nc3c(N4CCN(Cc5cn(-c6nc7ccccc7[nH]6)nn5)CC4)cccc3[nH]2)cc1` [8h], the “potency to inhibit GnRH receptor (in words)” value in data set [1] is recorded as “did not give the desired inhibition”.

On to `CSc1nc(NC(C)C)nc(-n2cc(CN3CCN(c4cccc5[nH]c(-c6ccc(C(C)(C)C)cc6)nc45)CC3)nn2)n1` [8j], for which, in data set [1], the IC50 is more than 10000 nM and the Ki is more than 1000 nM.

On to `C#CCN1CCN(c2cccc3[nH]c(-c4ccc(C(C)(C)C)cc4)nc23)CC1` [7b], for which, in data set [3], the solubility is more than 0.1 µM.

As to `CC(C)(C)c1ccc(-c2nc3c(N4CCN(CCF)CC4)cccc3[nH]2)cc1` [7a], the “potency, fold lower than 1” value in data set [1] (relative to 1) was found to be 21 fold. Also, the solubility in data set [3] is more than 0.1 µM.

Turning to `CC(C)(C)c1ccc(-c2nc3c(N4CCN(Cc5cccc6nccnc56)CC4)cccc3[nH]2)cc1` [compound 1], the results for the IC50 in data set [4] and in data set [5] were 72 nM and 12 nM, respectively.

Turning to `CC(C)(C)c1ccc(-c2nc3c(N4CCN(Cc5cn(CCF)nn5)CC4)cccc3[nH]2)cc1` [8a], the “potency to inhibit GnRH receptor (in words)” value in data set [1] is given as “equally potent as 1”. Further, the thermodynamic solubility at 24 h is 2100 µg/mL (≈ 4550 µM) in data set [2] (setting [8]) and 3 µg/mL (≈ 6.5 µM) in data set [2] (setting [9]). In addition, the “solubility, times more soluble than 1” value in data set [2] (relative to 1) is recorded as 1.5 times.
